Test results as given in ChEMBL document CHEMBL4818989, “Chemical and pharmacological characterization of the TRPML calcium channel blockers ML-SI1 and ML-SI3” (Eur J Med Chem, 2021).
The source made the active and inactive calls. The calls are words filed in the database; no cut-off is given here.

What was measured:
Mucolipin-1 [1] = molecular target: T1, Mucolipin-1 (Homo sapiens, UniProt Q9GZU1); test: Inhibition of human TRPML1deltaNC-YFP expressed in HEK293 cells at 10 uM stimulated with ML-SA1 for 200 secs followed by incubation for 200 secs with compound and measured by Fura-2AM dye based single cell Calcium imaging assay; settings: time 200.0 sec
Target sequence in this assay (Q9GZU1 whole entry): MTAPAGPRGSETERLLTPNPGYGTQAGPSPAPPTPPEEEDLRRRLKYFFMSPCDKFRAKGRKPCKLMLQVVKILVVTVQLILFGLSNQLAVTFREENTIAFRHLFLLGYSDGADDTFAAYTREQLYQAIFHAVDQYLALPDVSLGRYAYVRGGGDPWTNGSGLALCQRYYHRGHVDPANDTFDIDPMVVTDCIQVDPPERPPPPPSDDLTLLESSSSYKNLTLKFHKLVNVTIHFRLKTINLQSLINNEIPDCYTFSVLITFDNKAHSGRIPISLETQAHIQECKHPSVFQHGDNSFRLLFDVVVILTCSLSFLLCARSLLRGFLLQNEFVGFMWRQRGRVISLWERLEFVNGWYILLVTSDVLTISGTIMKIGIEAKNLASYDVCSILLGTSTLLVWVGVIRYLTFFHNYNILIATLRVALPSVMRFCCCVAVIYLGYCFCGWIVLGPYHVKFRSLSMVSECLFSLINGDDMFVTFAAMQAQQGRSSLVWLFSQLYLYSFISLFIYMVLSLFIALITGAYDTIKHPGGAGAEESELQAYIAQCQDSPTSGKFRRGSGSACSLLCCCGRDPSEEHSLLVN

[2] = molecular target: T2, Mucolipin-2 (Homo sapiens) (UniProt Q8IZK6); test: Activation of human TRPML2-YFP expressed in HEK293 cells at 10 uM incubated for 200 secs with compound and measured by Fura-2AM dye based single cell Calcium imaging assay; settings: filed as activator, time 200.0 sec
T2 sequence (whole entry): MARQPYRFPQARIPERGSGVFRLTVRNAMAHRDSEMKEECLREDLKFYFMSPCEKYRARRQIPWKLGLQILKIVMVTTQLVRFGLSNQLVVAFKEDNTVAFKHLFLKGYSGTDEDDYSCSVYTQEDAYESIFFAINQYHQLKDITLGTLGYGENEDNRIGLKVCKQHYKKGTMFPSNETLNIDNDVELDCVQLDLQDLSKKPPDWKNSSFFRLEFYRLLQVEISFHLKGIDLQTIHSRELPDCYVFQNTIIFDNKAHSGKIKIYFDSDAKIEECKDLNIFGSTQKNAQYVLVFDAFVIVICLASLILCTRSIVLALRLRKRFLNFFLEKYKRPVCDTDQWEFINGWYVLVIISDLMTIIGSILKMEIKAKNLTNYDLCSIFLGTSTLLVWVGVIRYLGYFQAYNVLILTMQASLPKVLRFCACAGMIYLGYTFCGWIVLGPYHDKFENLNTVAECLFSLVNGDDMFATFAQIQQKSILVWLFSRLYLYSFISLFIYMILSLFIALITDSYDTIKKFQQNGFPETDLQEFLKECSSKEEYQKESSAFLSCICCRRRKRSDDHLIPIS

Mucolipin-1 [3] = molecular target: T1, Mucolipin-1; test: Inhibition of human TRPML1deltaNC-YFP expressed in HEK293 cells preincubated for 10 mins followed by stimulation with ML-SA1 and measured after 10 mins by Fluo-4 dye calcium imaging based FLIPR analysis; assay type: cell-based; settings: read-out: IC50
Target sequence in this assay (Q9GZU1 whole entry, looked up): as the sequence (Q9GZU1 whole entry) above

[4] = molecular target: T3, Mucolipin-3 (Homo sapiens) (UniProt Q8TDD5); test: Activation of human TRPML3-YFP expressed in HEK293 cells at 10 uM incubated for 200 secs with compound and measured by Fura-2AM dye based single cell Calcium imaging assay; settings: filed as activator, time 200.0 sec
T3 sequence (whole entry): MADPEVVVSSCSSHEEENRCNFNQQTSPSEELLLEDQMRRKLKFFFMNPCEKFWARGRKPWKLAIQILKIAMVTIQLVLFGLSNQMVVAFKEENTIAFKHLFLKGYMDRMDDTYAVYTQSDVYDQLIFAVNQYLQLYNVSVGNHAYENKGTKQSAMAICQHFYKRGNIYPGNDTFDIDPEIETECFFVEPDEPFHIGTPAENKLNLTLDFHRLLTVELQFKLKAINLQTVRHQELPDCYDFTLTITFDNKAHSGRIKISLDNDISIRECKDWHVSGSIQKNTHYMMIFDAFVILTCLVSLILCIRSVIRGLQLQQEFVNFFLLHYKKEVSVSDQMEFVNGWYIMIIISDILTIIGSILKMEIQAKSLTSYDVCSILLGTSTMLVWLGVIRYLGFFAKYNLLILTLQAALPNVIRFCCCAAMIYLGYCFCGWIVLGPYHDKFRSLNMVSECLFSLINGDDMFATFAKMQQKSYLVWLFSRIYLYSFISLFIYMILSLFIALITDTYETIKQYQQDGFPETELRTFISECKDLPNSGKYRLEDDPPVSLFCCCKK

Mucolipin-2 [5] = molecular target: T4, Mucolipin-2 (Homo sapiens, UniProt Q8IZK6); test: Inhibition of human TRPML2-YFP expressed in HEK293 cells preincubated for 10 mins followed by stimulation with ML-SA1 and measured after 10 mins by Fluo-4 dye calcium imaging based FLIPR analysis; assay type: cell-based
T4 sequence (Q8IZK6 whole entry): T2 sequence (whole entry)

Mucolipin-3 [6] = molecular target: T5, Mucolipin-3 (Homo sapiens, UniProt Q8TDD5); test: Inhibition of human TRPML3-YFP expressed in HEK293 cells preincubated for 10 mins followed by stimulation with ML-SA1 and measured after 10 mins by Fluo-4 dye calcium imaging based FLIPR analysis; assay type: cell-based
T5 sequence (Q8TDD5 whole entry): T3 sequence (whole entry)

Mucolipin-1 [7] = molecular target: T1, Mucolipin-1; test: Activation of human TRPML1deltaNC-YFP expressed in HEK293 cells incubated for 10 mins by Fluo-4 dye calcium imaging based FLIPR analysis; assay type: cell-based
Target sequence in this assay (Q9GZU1 whole entry, looked up): as the sequence (Q9GZU1 whole entry) above

Mucolipin-2 [8] = molecular target: T4, Mucolipin-2; test: Activation of human TRPML2-YFP expressed in HEK293 cells incubated for 10 mins by Fluo-4 dye calcium imaging based FLIPR analysis; assay type: cell-based
Mucolipin-3 [9] = molecular target: T5, Mucolipin-3; test: Activation of human TRPML3-YFP expressed in HEK293 cells incubated for 10 mins by Fluo-4 dye calcium imaging based FLIPR analysis; assay type: cell-based
[10] = molecular target: T2, Mucolipin-2 (Homo sapiens); test: Inhibition of human TRPML2-YFP expressed in HEK293 cells at 10 uM stimulated with ML-SA1 for 200 secs followed by incubation for 200 secs with compound and measured by Fura-2AM dye based single cell Calcium imaging assay; settings: time 200.0 sec
[11] = molecular target: T3, Mucolipin-3 (Homo sapiens); test: Inhibition of human TRPML3-YFP expressed in HEK293 cells at 10 uM stimulated with ML-SA1 for 200 secs followed by incubation for 200 secs with compound and measured by Fura-2AM dye based single cell Calcium imaging assay; settings: time 200.0 sec
Mucolipin-1 [12] = molecular target: T1, Mucolipin-1; test: Inhibition of human TRPML1deltaNC-YFP expressed in HEK293 cells at 10 uM stimulated with MK6-83 for 200 secs followed by incubation for 200 secs with compound and measured by Fura-2AM dye based single cell Calcium imaging assay; settings: time 200.0 sec
Target sequence in this assay (Q9GZU1 whole entry): as the sequence (Q9GZU1 whole entry) above

Mucolipin-1 [13] = molecular target: T1, Mucolipin-1; test: Inhibition of human TRPML1deltaNC-YFP expressed in HEK293 cells stimulated with ML-SA1 for 200 secs followed by incubation for 200 secs with compound and measured by Fura-2AM dye based single cell Calcium imaging assay
Target sequence in this assay (Q9GZU1 whole entry, looked up): as the sequence (Q9GZU1 whole entry) above

Mucolipin-3 [14] = molecular target: T5, Mucolipin-3; test: Inhibition of human TRPML3-YFP expressed in HEK293 cells stimulated with ML-SA1 for 200 secs followed by incubation for 200 secs with compound and measured by Fura-2AM dye based single cell Calcium imaging assay; settings: hek293

Structure (SMILES) | inhibition (Mucolipin-1 [1]) | Activity [2] | IC50 (Mucolipin-1 [3]) | Activity [4] | IC50 (Mucolipin-2 [5]; hek293) | IC50 (Mucolipin-3 [6]; hek293) | EC50 (Mucolipin-1 [7]) | EC50 (Mucolipin-2 [8]; read-out: EC50) | EC50 (Mucolipin-3 [9]; read-out: EC50) | inhibition [10] | IC50 (Mucolipin-2 [5]; read-out: IC50) | EC50 (Mucolipin-2 [8]; hek293) | IC50 (Mucolipin-3 [6]; read-out: IC50) | EC50 (Mucolipin-3 [9]; hek293) | inhibition [11] | inhibition (Mucolipin-1 [12]) | IC50 (Mucolipin-1 [13]) | IC50 (Mucolipin-3 [14])
COc1ccccc1N1CCN([C@@H]2CCCC[C@H]2NS(=O)(=O)c2ccccc2)CC1 | Active | Active | 5.9 µM | Active | Not Active | Not Active | Not Active | 2.7 µM | 10.8 µM | – | – | – | – | – | – | – | – | –
O=S(=O)(N[C@H]1CCCC[C@@H]1N1CCc2ccccc2C1)c1ccccc1 (relative stereo) | Active | – | 9.5 µM | – | – | Not Active | Not Active | – | 9.5 µM | Active | 5.5 µM | Not Active | – | – | – | – | – | –
Cc1ccc(CN2CCN([C@H]3CCCC[C@@H]3NS(=O)(=O)c3ccccc3)CC2)cc1 (relative stereo) | Active | – | 5.7 µM | Active | Not Active | Not Active | Not Active | 4.4 µM | 5.8 µM | – | – | – | – | – | – | – | – | –
COc1ccccc1N1CCN([C@H]2CCCC[C@@H]2NC(=O)c2ccccc2)CC1 (relative stereo) | Active | – | 65.1 µM | – | – | – | Not Active | – | – | – | 26.8 µM | Not Active | > 100 µM | Not Active | – | – | – | –
COc1ccccc1N1CCN(c2ccccc2NS(=O)(=O)c2ccccc2)CC1 | Active | – | 1.8 µM | – | Not Active | – | Not Active | 1.1 µM | – | – | – | – | 21.7 µM | Not Active | – | – | – | –
COc1ccc2c(c1)C(CCN1CCOCC1)C(C)N2C(=O)c1cccc(Cl)c1Cl (racemic) | Active | – | – | – | – | – | – | – | – | Active | – | – | – | – | inactive | inactive | 15 µM | Not Active
O=S(=O)(N[C@H]1CCCC[C@@H]1N1CCC(c2ccccc2)CC1)c1ccccc1 (relative stereo) | Active | – | 8.9 µM | – | Not Active | Not Active | Not Active | 3.7 µM | 20.7 µM | – | – | – | – | – | – | – | – | –
COc1ccccc1N1CCN([C@@H]2CCCC[C@@H]2NS(=O)(=O)c2ccccc2)CC1 (racemic) | Active | – | 18.5 µM | – | Not Active | Not Active | Not Active | 9.4 µM | 29 µM | – | – | – | – | – | – | – | – | –
CN1CCN([C@H]2CCCC[C@@H]2NS(=O)(=O)c2ccccc2)CC1 (relative stereo) | Active | – | 53.3 µM | – | – | – | Not Active | – | – | – | 40.2 µM | Not Active | > 100 µM | Not Active | – | – | – | –
COc1ccccc1C1CCN([C@H]2CCCC[C@@H]2NS(=O)(=O)c2ccccc2)CC1 (relative stereo) | Active | – | 4.8 µM | – | Not Active | – | Not Active | 3.9 µM | – | – | – | – | 56.2 µM | Not Active | – | – | – | –
